In patent US20250189527A1, “COMPOSITIONS AND METHODS FOR DETECTING, PREDICTING RISK OF DEVELOPING, AND TREATING LEPTOMENINGEAL DISEASE” (Duke University, priority 2022, published 2025):

Tests used:
CSF1R+ cells [1] = assay: Depletion of CSF1R+ cells in CSF1R-GFP reporter mice fed PLX5622 chow (whole mount and intravital imaging); format: in vivo, mouse; conditions: 1200 mg kg^−1 in AIN-76A rodent chow for three days; brain parenchyma and LM
Method: FIG. 16A-E: Meningeal macrophages co-localize with EO-LM2 cells and are depleted with the CSF1R inhibitor, PLX5622. a, Confocal intravital microscopy (IVM) of the brain leptomeninges (LM) showing tdTomato+EO-LM2 cells co-localizing with CSF1R+ myeloid cells in the perivascular space of LM vessels (white). Scale bar=[…]. b, Representative whole mount (brain parenchyma) and IVM (LM) images of CSF1R-GFP reporter mice treated with either control or PLX5622 (1200 mg kg^−1) formulated AIN-76A rodent chow for three days. CSF1R+ cells=green. Vessels=white. c, Quantification of the number of CSF1R+ cells per imaging field of view of mice in (b). Three 10× field of view images acquired per mouse. Unpaired, two-sided Student's t-test. n=3 mice per group. ***P=0.0001. ****P<0.0001. s.e.m. d, Dosing Strategy for experiment in FIG. 11k,l. e, Dosing strategy for experiment in FIG. 11m,n.
PLX5622 (ChemGood) was formulated into AIN-76A rodent chow at 1200 mg kg^−1 by Research Diets Inc. Formulated chow was irradiated prior to administration. CSF1R-GFP (MacGreen) mice were given AIN-76A±PLX5622 for three days prior to engraftment and continued to feed on formulated or control chow for the duration of the study. […]
(§1) Intravital and whole mount images were imported into ImageJ for quantification. […] Tissue bordered were then traced and the mean tdT signal was measured over total tissue area.

GDNF = GDNF immunofluorescence on meninges cytospins from EO-LM2-engrafted CSF1R-GFP mice; format: in vivo, mouse; conditions: meninges cytospin at endpoint, veh. vs. PLX5622-treated EO-LM2 mice; P=0.0232
Text: The mouse meninges were isolated as described by Louveau et al (Louveau, A., Filiano, A. J. & Kipnis, J. Meningeal whole mount preparation and characterization of neural cells by flow cytometry. Current protocols in immunology 121, e50-e50 (2018)). Briefly, the skull cap was removed and placed in a cold PBS bath under a dissecting microscope. Using fine forceps, the meninges were carefully peeled off the skull. Any remaining meninges on the brain surface were carefully removed with fine forceps while limiting the removal of residual brain parenchyma. The meninges were digested for 45 min at 37° C. in digest buffer (1×HBSS with calcium and magnesium (Corning), 5% FBS, 10 mM HEPES, DNase (Sigma Aldrich, 20 U mL^−1), Liberase DL (Sigma Aldrich, 10 mg mL^−1), Liberase TL (Sigma Aldrich, 10 mg mL^−1)) and lightly shaken every 10 min. The digested solution was then passed through a 70-μm cell strainer and a rubber syringe pump was used to gently push through any undigested tissue. […]
Glass 96-well plates were coated with 100 μL of poly-D-lysine (Sigma Aldrich, 0.1 mg mL^−1) in water at room temperature for 1 h and then washed three times with sterile PBS and allowed to air dry for 15 min in a tissue culture hood. […] ImageJ was used to quantify raw integrated pixel density per cell.

EO-LM2 cells [2] = assay: Intravital microscopy of EO-LM2 cells in the LM of vehicle vs. PLX5622-treated mice; format: in vivo, mouse
Method: PLX5622 (ChemGood) was formulated into AIN-76A rodent chow at 1200 mg kg^−1 by Research Diets Inc. Formulated chow was irradiated prior to administration. CSF1R-GFP (MacGreen) mice were given AIN-76A±PLX5622 for three days prior to engraftment and continued to feed on formulated or control chow for the duration of the study.
Mice were anaesthetized using isoflurane and the cortical bone was exposed following a sagittal incision in the scalp. The head of the mouse was secured using a stereotactic apparatus. A micromotor high-speed drill (Stoelting) with a carbide 0.75-mm drill bit (Stoelting) was used to thin the skull immediately to the left of the sagittal suture and centered between the coronal suture and the lambdoid suture. The skull-thinned region was circular and approximately 1 mm in diameter and the thinning continued until the meningeal vessels were visible under a dissecting microscope and the remaining bone was about 50 μm thin. PBS was used to clean the surgical site and dissipate heat every 15 sec. High-resolution images of the leptomeninges were obtained through the skull thinned window using a Leica SP8 confocal and multiphoton microscope with a 25× water immersion lens. […]
as §1

EO-LM2 cells [3] = assay: Time to LMD progression (HLP score of 0.5) in EO-LM2-engrafted mice, vehicle vs. PLX5622; format: in vivo, mouse; conditions: PLX5622 chow 1200 mg kg^−1 from three days prior to engraftment, P=0.0002
Text: (§2) FIG. 11A-Q: Meningeal macrophages promote BCC survival through GDNF/NCAM signaling. a, Volcano plot of differentially expressed genes in EO-LM2 vs. −P cells. b, Ncam1 mean fluorescence intensity (MFI) by flow cytometry. n=3 biological replicates. Two-sided, unpaired Student's t-test. c, Representative intravital microscopy (IVM) and quantification of EO-LM2 vs. −NCAM1KO cells in the LM of mice on day 3 post-engraftment. n=3 mice. Two-sided, unpaired Student's t-test. d, Hindlimb paralysis (HLP) incidence and representative brain section H&E of paired EO-LM2 vs. −NCAM1KO mice euthanized when either reached a clinical endpoint (EP). n=5 mice. […] Arrows=CSFIR+ cells (green). n=3 mice; n=18-43 cells quantified/mouse. […] Arrowheads=tdT+1833 cells. i, Flow cytometry quantification of GDNF expression in cells isolated from meninges of EO-LM2 mice. n=3 biological replicates. […] Two-sided, unpaired Student's t-test. m, Representative 3D IVM images of EO-LM2 cells (red, arrowheads) co-localizing with CSF1R+ cells (green) surrounding LM vessels (white) in veh. vs. PLX5622-treated mice on day 3 or 10 post-engraftment. n, Quantification of EO-LM2 and CSF1R co-localizing (co-loc.) or non-co-localizing (no-coloc.) cells in the LM of mice in (m). n−3 mice. […]

CSF1R+ cells [4] = conditions: systemic (non-CNS) populations; cited from earlier work
EO-LM2 cells [5] = assay: GDNF glucose starvation assay, EO-LM2 cells; format: cell-based, mouse; conditions: glucose free media+1% FBS, GDNF 100 ng mL^−1, 24 h, P=0.0120 vs. vehicle/isotype
Method: (§3) 1×10^5 1833 or EO-LM2 cells were seeded in glucose free or complete media+1% FBS in a 12-well plate. The cells were treated with recombinant human/mouse GDNF (PeproTech, 100 ng mL^−1) or vehicle (0.1% BSA in water) and anti-CD49f neutralizing antibody (Invitrogen, 2.5 μg mL^−1) or isotype control. The cells were incubated at 37° C. and 5% CO2 for 24 h (EO-LM2) or 48 h (1833) and then trypsinized and counted with a hemacytometer. The number of live cells in the glucose deprived conditions were then divided by the number of cells in the glucose complete condition to determine the percent of cells alive after glucose deprivation.

1833 cells = assay: GDNF glucose starvation assay, 1833 cells; format: cell-based, human; conditions: glucose free media+1% FBS, GDNF 100 ng mL^−1, 48 h, P=0.0203 vs. vehicle/isotype
Method: as §3

EO-LM2 cells [6] = assay: Intracerebroventricular (ICV) GDNF rescue experiment in tumored, CSF1R-depleted mice; format: in vivo, mouse; conditions: intraventricular GDNF vs. veh. ICV in PLX5622-treated tumored mice; P=0.0002
Text: as §2

Molecule | depletion of CSF1R+ cells from the CNS (CSF1R+ cells [1]) | LM cells expressing GDNF (GDNF) | initial BCC invasion of the LM (EO-LM2 cells [2]; day 3 post-engraftment, veh. vs. PLX5622) | subsequent BCC expansion within the LM (EO-LM2 cells [2]; day 10 post-engraftment, veh. vs. PLX5622, P<0.0001) | time to LMD progression (time to HLP score of 0.5) (EO-LM2 cells [3]) | effects on systemic CSF1R+ populations (CSF1R+ cells [4]) | protection from cell death in low glucose conditions (percent live cells after glucose deprivation) (EO-LM2 cells [5]) | protection from cell death in low glucose conditions (percent live cells after glucose deprivation) (1833 cells) | LMD progression (time to HLP score of 0.5) (EO-LM2 cells [6])
COc1ncc(F)cc1CNc1ccc(Cc2c[nH]c3ncc(C)cc23)c(F)n1 [PLX5622] | dramatically depletes | dramatic decrease | did not affect | did prevent | substantially prolonged | modest effects |  |  | 
Recombinant GDNF: recombinant human/mouse glial cell line-derived neurotrophic factor (PeproTech) (protein, UniProt P39905 78-211, looked up) Glial cell line-derived …: SPDKQMAVLPRRERNRQAAAANPENSRGKGRRGQRGKNRGCVLTAIHLNVTDLGLGYETKEELIFRYCSGSCDAAETTYDKILKNLSRNRRLVSDKVGQACCRPIAFDDDLSFLDDNLVYHILRKHSAKRCGCI |  |  |  |  |  |  | marked protection from cell death | marked protection from cell death | accelerated LMD progression
